Test results reported in patent publication US6369057B1, “Quinoxalines, processes for their preparation and their use” (Aventis Pharma Deutschland GmbH, priority 1991, dated 2002).

How the values were obtained:
[1] = target: T1, HIV reverse transcriptase (RT) (Human immunodeficiency virus type 1 group M subtype B, UniProt P03366); assay: Assay for HIV reverse transcriptase inhibition (scintillation proximity assay); type: biochemical; conditions: for Reverse Transcriptase Assay IC50: RT from HIV cloned in E. coli, SPA, 60 minutes (37° C.)
T1 construct: The enzyme RT (from HIV cloned in E. coli); purchased HT-Biotechnology Ltd, Cambridge, UK; host or cells: E. coli
Protocol: Assay of the Substances for HIV Reverse Transcriptase Inhibition
The activity of reverse transcriptase (RT) was determined with the aid of a scintillation proximity assay (SPA).
The reagent kit for the RT-SPA was obtained from Amersham/Buchler (Braunschweig).
The enzyme RT (from HIV cloned in E. coli) originated from HT-Biotechnology Ltd, Cambridge, UK.
The assay was carried out using the manufacturer's (Amersham) protocol manual, with the following modifications: bovine serum albumin was added to the assay buffer to give an end concentration of 0.5 mg/ml the assay was carried out in Eppendorf reaction vessels, using 100 μl volume per batch the manufacturer's RT concentrate (5000 U/ml) was diluted in Tris-HCl buffer 20 mM; pH 7.2; 30% of glycerol, to an activity of 15 U per ml the incubation time for the mixtures was 60 minutes (37° C.) after stopping the reaction and “developing” with the bead suspension, 130 μl of mixture were transferred to 4.5 ml of Tris-HCl buffer, 10 mM; pH 7.4; 0.15 M NaCl, and the tritium activity was measured by means of a [formula]-counter.
For a pre-assay for inhibitory activity, the substances were dissolved in DMSO (stock solution c=1 mg/ml), and tested as a 10^−1, 10^−2, 10^−3, etc., dilution in DMSO.
To determine IC50 values, the inhibitor stock solutions were diluted further in Tris-HCl buffer, 50 mM, pH 8, and tested in suitable concentrations.
The concentration corresponding to a 50% enzyme inhibition was determined from a plot of RT activity versus log Clnh.

HIV = assay: Test of preparations against HIV in cell culture (T-cell culture assay); type: cell-based; conditions: lowest concentration where no giant cells were observed, HIV-infected lymphocytes from donor blood, 3 days at 37° C.
Protocol: Test of Preparations Against HIV in Cell Culture
Complete medium additionally contains 20% fetal calf serum and 40 IU/ml recombinant interleukin 2.
Lymphocytes which have been isolated from fresh donor blood by means of Ficoll gradient centrifugation are cultured for 36 hours in complete medium with an addition of 2 μg/ml phytohemagglutinin (Wellcome) at 37° C. under 5% of CO2. After 10% of DMSO has been added, the cells are frozen at a density of 5 [formula]10^6 and stored in liquid nitrogen. For the test, the cells are defrosted, washed in RPMI medium and cultured for 3-4 days in the complete medium.
The test preparations were dissolved in DMSO at a concentration of 16.7 mg/ml and diluted in complete medium to 1 mg/ml.
0.4 ml of medium was introduced into 24-multiwell dishes. 0.1 ml of the dissolved preparation was added to the upper row of the dish, and, by transferring 0.1 ml portions, a geometric dilution series was established. Controls without preparation always contained 0.4 ml of complete medium containing 0.5% of DMSO. Lymphocyte cultures with a cell density of 5 [formula]10^5 cells/ml were infected by adding 1/50 volume supernatant from HIV-infected lymphocyte cultures. The titer of these culture supernatants was determined by end-point titration as 1-5 [formula]10^6 infectious units/ml. After 30 minutes' incubation at 37° C., the infected lymphocytes were removed by centrifugation and taken up in an equal volume of medium. From this cell suspension, 0.6 ml aliquots were transferred into all wells of the test plate. The mixtures were incubated for 3 days at 37° C.
The infected cell cultures were examined under the microscope for the presence of giant cells, which indicate active virus multiplication in the culture. The lowest concentration of preparation where no giant cells were observed was determined as inhibitory concentration against HIV. As a control, the supernatants from the culture plates were tested for the presence of HIV antigen with the aid of an HIV antigen test following the manufacturer's instructions (Organon).

CC(C)=CCN1c2cccc(C)c2NC(=O)C1(C)C [Example 6-16]
Reverse Transcriptase Assay IC50 [1]: approx. 1 μg/ml
T-cell culture assay MIC (HIV): <0.8 µg/mL

CC1C(=O)Nc2ccc(Cl)cc2N1Cc1cccc(Cl)c1 (stereo not shown) [Example 10-20]
Reverse Transcriptase Assay IC50 [1]: 0.1 to 1 µg/mL
T-cell culture assay MIC (HIV): <0.8 µg/mL

C=C(C)OC(=O)N1c2cc(Cl)ccc2NC(=O)C1C(C)CC (stereo not shown) [Example 3-81]
Reverse Transcriptase Assay IC50 [1]: approx. 1 μg/ml
T-cell culture assay MIC (HIV): 0.08 µg/mL

CC1C(=O)Nc2ccc(Cl)cc2N1Cc1ccccn1 (stereo not shown) [Example 10-10]
Reverse Transcriptase Assay IC50 [1]: approx. 1 μg/ml
T-cell culture assay MIC (HIV): 0.08 µg/mL

CC(C)=CCN1c2ccccc2NC(=S)C1C (racemic) [Example 7-1, (3RS)-3-Methyl-4-N-(3-methyl-2-buten-1-yl)-3,4-dihydroquinoxaline-2(1H)-thione]
IC50 [1]: 325 nM
MIC (HIV; Human immunodeficiency virus 1, 72 h): < 0.16 µg/mL

CC1C(=O)Nc2ccc(Cl)cc2N1Cc1c(Cl)cccc1Cl (stereo not shown) [Example 10-27]
Reverse Transcriptase Assay IC50 [1]: 0.1 to 1 µg/mL
T-cell culture assay MIC (HIV): 0.8 µg/mL

C=C(C)OC(=O)N1c2ccc(C)c(C)c2NC(=O)C1(C)C [Example 6-35]
Reverse Transcriptase Assay IC50 [1]: 0.1 to 1 µg/mL
T-cell culture assay MIC (HIV): <0.08 µg/mL

C=C(C)OC(=O)N1c2cc(Cl)ccc2NC(=O)C1CSC (stereo not shown) [Example 3-76]
Reverse Transcriptase Assay IC50 [1]: 0.018 µg/mL
T-cell culture assay MIC (HIV): <0.08 µg/mL

C=CCOC(=O)N1c2cc(Cl)ccc2NC(=O)C1CC (stereo not shown) [Example 3-32]
Reverse Transcriptase Assay IC50 [1]: approx. 0.1 μg/ml
T-cell culture assay MIC (HIV): <0.4 µg/mL

C=CCOC(=O)N1c2cc(Cl)ccc2NC(=S)C1(C)C [Example 7-21]
Reverse Transcriptase Assay IC50 [1]: 0.01 to 0.1 µg/mL
T-cell culture assay MIC (HIV): <0.01 µg/mL

C=C(C)OC(=O)N1c2cc(Cl)ccc2NC(=O)C1CC (stereo not shown) [Example 3-30]
Reverse Transcriptase Assay IC50 [1]: 0.025 µg/mL
T-cell culture assay MIC (HIV): <0.01 µg/mL

CC(C)=CCN1c2ccc(C)c(C)c2NC(=O)C1(C)C [Example 6-27]
Reverse Transcriptase Assay IC50 [1]: approx. 1 μg/ml
T-cell culture assay MIC (HIV): <0.4 µg/mL

CC(C)OC(=O)N1c2cc(Cl)ccc2NC(=S)C1(C)C [Example 7-22]
Reverse Transcriptase Assay IC50 [1]: 0.01 to 0.1 µg/mL
T-cell culture assay MIC (HIV): <0.01 µg/mL

CC(C)=CCN1c2cc(Cl)ccc2NC(=O)C1C (racemic) [VI-C, (3RS)-6-Chloro-3-methyl-4-N-(3-methyl-2-buten-1-yI)-3,4-dihydroquinoxalin-2(1H)-one]
Reverse Transcriptase Assay IC50 [1]: 0.8 µg/mL
T-cell culture assay MIC (HIV): <0.8 µg/mL

CC(C)OC(=O)N1c2cc(Cl)ccc2NC(=O)C1C (stereo not shown) [Example 11-11]
Reverse Transcriptase Assay IC50 [1]: 0.1 to 1 µg/mL
T-cell culture assay MIC (HIV): 0.01 µg/mL

CC1C(=O)Nc2ccc(Cl)cc2N1Cc1ccco1 (stereo not shown) [Example 10-13]
Reverse Transcriptase Assay IC50 [1]: approx. 1 μg/ml
T-cell culture assay MIC (HIV): 0.08 µg/mL

CC(C)OC(=O)N1c2cc(Cl)ccc2NC(=O)C1(C)C [Example 6-50]
Reverse Transcriptase Assay IC50 [1]: 0.01 to 0.1 µg/mL
T-cell culture assay MIC (HIV): <0.01 µg/mL

CC(C)=CCN1c2cc(Cl)ccc2NC(=S)C1(C)C [Example 7-7]
Reverse Transcriptase Assay IC50 [1]: 0.1 µg/mL
T-cell culture assay MIC (HIV): 0.04 µg/mL

C=CCOC(=O)N1c2cc(Cl)ccc2NC(=S)C1C (stereo not shown) [Example 7-10]
Reverse Transcriptase Assay IC50 [1]: 0.11 µg/mL
T-cell culture assay MIC (HIV): <0.04 µg/mL

CC1C(=O)Nc2ccc(Cl)cc2N1Cc1cc(Cl)cc(Cl)c1 (stereo not shown) [Example 10-28]
Reverse Transcriptase Assay IC50 [1]: 0.1 to 1 µg/mL
T-cell culture assay MIC (HIV): <0.8 µg/mL
